Reference: the supplement of paper PMC10307832

How the values were obtained:
Assay in all cases: relative viability (nuclei count vs DMSO), 5 days (fraction); higher = more cells survive
[1] = compound: CN(C)C[C@@H]1CCn2cc(c3ccccc32)C2=C(C(=O)NC2=O)c2cn(c3ccccc23)CCO1 [Ruboxistaurin]
How it was run: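 Nuclei counted with MetaXpress define viability as the ratio of treated to vehicle wells, given as a median across plates. The lung cancer cell lines were in 1536-well plates, pinned with five √10-spaced library-drug doses and imaged at 4× after 5 days and Hoechst staining. Plates passed with control CV below 25% and at least one doubling.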

[2] = compound: CN(C)C[C@@H]1CCn2cc(c3ccccc32)C2=C(C(=O)NC2=O)c2cn(c3ccccc23)CCO1 [Ruboxistaurin] + CC1(C)CCC(c2ccc(Cl)cc2)=C(CN2CCN(c3ccc(C(=O)NS(=O)(=O)c4ccc(N[C@H](CCN5CCOCC5)CSc5ccccc5)c(S(=O)(=O)C(F)(F)F)c4)cc3)CC2)C1 [Navitoclax] (partner 0.5 µM)
How it was run: (§1)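 Relative viability equals treated-well nuclei counts divided by vehicle-well nuclei counts. Counts came from 4× images of lung cancer cell lines grown in 1536-well plates for 5 days after pin-tool dosing on the day after seeding. Dosing used one drug alone or a fixed anchor-drug dose plus five library-drug doses (not always all listed) in √10 steps, and values are medians of duplicate plates.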

[3] = compound: CN(C)C[C@@H]1CCn2cc(c3ccccc32)C2=C(C(=O)NC2=O)c2cn(c3ccccc23)CCO1 [Ruboxistaurin] + C[C@]1(O)C[C@@H](c2nc(-c3ccc4ccc(-c5ccccc5)nc4c3)c3c(N)nccn32)C1 [Linsitinib] (partner 1 µM)
How it was run: as §1

[4] = compound: CN(C)C[C@@H]1CCn2cc(c3ccccc32)C2=C(C(=O)NC2=O)c2cn(c3ccccc23)CCO1 [Ruboxistaurin] + CC(C)C[C@H](NC(=O)[C@H](Cc1ccccc1)NC(=O)c1cnccn1)B(O)O [Bortezomib] (partner 0.002 µM)
How it was run: as §1

[5] = compound: CN(C)C[C@@H]1CCn2cc(c3ccccc32)C2=C(C(=O)NC2=O)c2cn(c3ccccc23)CCO1 [Ruboxistaurin] + C[C@@H](Oc1cc(-c2cnn(C3CCNCC3)c2)cnc1N)c1c(Cl)ccc(F)c1Cl [Crizotinib] (partner 1 µM)
How it was run: as §1

[6] = compound: CN(C)C[C@@H]1CCn2cc(c3ccccc32)C2=C(C(=O)NC2=O)c2cn(c3ccccc23)CCO1 [Ruboxistaurin] + CS(=O)(=O)N1CCN(Cc2cc3nc(-c4cccc5[nH]ncc45)nc(N4CCOCC4)c3s2)CC1 [Pictilisib] (partner 1 µM)
How it was run: as §1

[7] = compound: CN(C)C[C@@H]1CCn2cc(c3ccccc32)C2=C(C(=O)NC2=O)c2cn(c3ccccc23)CCO1 [Ruboxistaurin] + CS(=O)(=O)CCNCc1ccc(-c2ccc3ncnc(Nc4ccc(OCc5cccc(F)c5)c(Cl)c4)c3c2)o1 [Lapatinib] (partner 2 µM)
How it was run: as §1

[8] = compound: CN(C)C[C@@H]1CCn2cc(c3ccccc32)C2=C(C(=O)NC2=O)c2cn(c3ccccc23)CCO1 [Ruboxistaurin] + COc1cc2c(Oc3ccc(NC(=O)C4(C(=O)Nc5ccc(F)cc5)CC4)cc3F)ccnc2cc1OCCCN1CCOCC1 [Foretinib] (partner 0.25 µM)
How it was run: as §1

[9] = compound: CN(C)C[C@@H]1CCn2cc(c3ccccc32)C2=C(C(=O)NC2=O)c2cn(c3ccccc23)CCO1 [Ruboxistaurin] + O=C(c1cc(Cc2n[nH]c(=O)c3ccccc23)ccc1F)N1CCN(C(=O)C2CC2)CC1 [Olaparib] (partner 8 µM)
How it was run: as §1

[10] = compound: CN(C)C[C@@H]1CCn2cc(c3ccccc32)C2=C(C(=O)NC2=O)c2cn(c3ccccc23)CCO1 [Ruboxistaurin] + Cc1nc(NC(=O)N2CCC[C@H]2C(N)=O)sc1-c1ccnc(C(C)(C)C(F)(F)F)c1 [Alpelisib] (partner 2 µM)
How it was run: as §1

[11] = compound: CN(C)C[C@@H]1CCn2cc(c3ccccc32)C2=C(C(=O)NC2=O)c2cn(c3ccccc23)CCO1 [Ruboxistaurin] + Cc1nc(Nc2ncc(C(=O)Nc3c(C)cccc3Cl)s2)cc(N2CCN(CCO)CC2)n1 [Dasatinib] (partner 0.075 µM)
How it was run: as §1

[12] = compound: CN(C)C[C@@H]1CCn2cc(c3ccccc32)C2=C(C(=O)NC2=O)c2cn(c3ccccc23)CCO1 [Ruboxistaurin] + COc1cccc2cc(-c3nc([C@H]4CC[C@H](C(=O)O)CC4)n4ncnc(N)c34)[nH]c12 [OSI-027] (partner 0.5 µM)
How it was run: as §1

[13] = compound: CN(C)C[C@@H]1CCn2cc(c3ccccc32)C2=C(C(=O)NC2=O)c2cn(c3ccccc23)CCO1 [Ruboxistaurin] + N=C(N)NC(=N)NCCc1ccccc1 [Phenformin] (partner 250 µM)
How it was run: as §1

[14] = compound: CN(C)C[C@@H]1CCn2cc(c3ccccc32)C2=C(C(=O)NC2=O)c2cn(c3ccccc23)CCO1 [Ruboxistaurin] + Cc1cc(Nc2cc(N3CCN(C)CC3)nc(Sc3ccc(NC(=O)C4CC4)cc3)n2)n[nH]1 [Tozasertib] (partner 0.1 µM)
How it was run: as §1

[15] = compound: CN(C)C[C@@H]1CCn2cc(c3ccccc32)C2=C(C(=O)NC2=O)c2cn(c3ccccc23)CCO1 [Ruboxistaurin] + CCNC(=O)c1noc(-c2cc(C(C)C)c(O)cc2O)c1-c1ccc(CN2CCOCC2)cc1 [Luminespib] (partner 0.01 µM)
How it was run: as §1

Cell Line: NCI-H1299
- relative viability ([1]; 0.08 µM): 1.06
- relative viability ([1]; 0.8 µM): 1
- relative viability ([1]; 2.53 µM): 1.01
- relative viability ([1]; 8 µM): 1.09
- relative viability ([2]; first compound 0.08 µM): 1.08
- relative viability ([2]; first compound 0.8 µM): 1.01
- relative viability ([2]; first compound 2.53 µM): 1.07
- relative viability ([2]; first compound 8 µM): 1.06
- relative viability ([3]; first compound 0.08 µM): 1.03
- relative viability ([3]; first compound 0.8 µM): 0.921
- relative viability ([3]; first compound 2.53 µM): 0.951
- relative viability ([3]; first compound 8 µM): 1.15
- relative viability ([4]; first compound 0.08 µM): 1.05
- relative viability ([4]; first compound 0.8 µM): 1.02
- relative viability ([4]; first compound 2.53 µM): 1.05
- relative viability ([4]; first compound 8 µM): 1.08
- relative viability ([5]; first compound 0.08 µM): 0.921
- relative viability ([5]; first compound 0.8 µM): 0.978
- relative viability ([5]; first compound 2.53 µM): 0.99
- relative viability ([5]; first compound 8 µM): 1.02
- relative viability ([6]; first compound 0.08 µM): 0.841
- relative viability ([6]; first compound 0.8 µM): 0.51
- relative viability ([6]; first compound 2.53 µM): 0.731
- relative viability ([6]; first compound 8 µM): 0.45
- relative viability ([7]; first compound 0.08 µM): 0.997
- relative viability ([7]; first compound 0.8 µM): 0.931
- relative viability ([7]; first compound 2.53 µM): 0.993
- relative viability ([7]; first compound 8 µM): 0.962
- relative viability ([8]; first compound 0.08 µM): 1.11
- relative viability ([8]; first compound 0.8 µM): 1.11
- relative viability ([8]; first compound 2.53 µM): 1.16
- relative viability ([8]; first compound 8 µM): 1.21
- relative viability ([9]; first compound 0.08 µM): 0.95
- relative viability ([9]; first compound 0.8 µM): 1.02
- relative viability ([9]; first compound 2.53 µM): 0.976
- relative viability ([9]; first compound 8 µM): 1.08
- relative viability ([10]; first compound 0.08 µM): 1.08
- relative viability ([10]; first compound 0.8 µM): 1.07
- relative viability ([10]; first compound 2.53 µM): 1.07
- relative viability ([10]; first compound 8 µM): 1.16

Cell Line: NCI-H1623
- relative viability ([1]; 0.08 µM): 1.03
- relative viability ([1]; 0.8 µM): 0.922
- relative viability ([1]; 2.53 µM): 1.01
- relative viability ([1]; 8 µM): 0.977
- relative viability ([11]; first compound 0.08 µM): 0.505
- relative viability ([11]; first compound 0.8 µM): 0.5
- relative viability ([11]; first compound 2.53 µM): 0.525
- relative viability ([11]; first compound 8 µM): 0.531
- relative viability ([12]; first compound 0.08 µM): 0.341
- relative viability ([12]; first compound 0.8 µM): 0.416
- relative viability ([12]; first compound 2.53 µM): 0.423
- relative viability ([12]; first compound 8 µM): 0.374
- relative viability ([13]; first compound 0.08 µM): 0.632
- relative viability ([13]; first compound 0.8 µM): 0.58
- relative viability ([13]; first compound 2.53 µM): 0.693
- relative viability ([13]; first compound 8 µM): 0.563
- relative viability ([8]; first compound 0.08 µM): 0.895
- relative viability ([8]; first compound 0.8 µM): 0.747
- relative viability ([8]; first compound 2.53 µM): 0.933
- relative viability ([8]; first compound 8 µM): 0.837
- relative viability ([14]; first compound 0.08 µM): 0.429
- relative viability ([14]; first compound 0.8 µM): 0.405
- relative viability ([14]; first compound 2.53 µM): 0.459
- relative viability ([14]; first compound 8 µM): 0.436
- relative viability ([15]; first compound 0.08 µM): 0.595
- relative viability ([15]; first compound 0.8 µM): 0.391
- relative viability ([15]; first compound 2.53 µM): 0.639
- relative viability ([15]; first compound 8 µM): 0.401
